# Entries after “also recorded” stand apart in the source; their conditions may differ. Where a SMILES comes first, the peptide text is derived from it.
# How the values were obtained:
# Candida albicans = format: cell-based
# Protocol: (§1) Isolates used in this study included Candida albicans (ATCC 28367), three fluconazole sensitive mucosal isolates of C. albicans, designated A-22, A-111 and A-155, three fluconazole resistant mucosal isolates of C. albicans designated A-46, A-5, and A-20, and a blood isolate of C. albicans designated WDO. Isolates were stored frozen at −70° C. and streaked onto Sabouraud Dextrose Agar (Sigma, St. Louis, Mo.) plates and maintained on plates at 4° C., with subculturing onto new plates approximately every 10 days for the duration of the studies. Fluconazole resistance was evaluated. Three clinical isolates of C. glabrata, two clinical isolates of C. dubliniensis, and single isolate each of C. krusei, C. guilliermondii, C. parapsilosis, C. pseudotropicalis and C. tropicalis and two isolates of Saccharomyces cerevisiae were also used in this study and were maintained on Sabouraud Dextrose agar plates at 4° C. A single yeast colony was cultured overnight at 33° C. in 1% phytone peptone broth (Becton Dickinson, Sparks Md.) with 0.1% D-glucose (Sigma).
# Stock solutions of all peptides were made up at concentrations of 1 mg/ml in sterile endotoxin-free water for irrigation (Baxter, Deerfield, Ill.). Subsequent dilutions were all made in tryptone saline pH 5.5 (Shafer et al., Infect Immun, 1984). An aliquot (100 μl) of an overnight culture of a single colony grown at 33° C. in 1% phytone peptone broth with 0.1% glucose was subcultured in 5 ml of 1% phytone peptone broth with 0.1% glucose and incubated in a shaking water bath (80 oscillations per min, Precision, Winchester, Va.) for 90 min at 33° C. to yield a logarithmic culture. […] The optical density was read and the culture adjusted to 500 blastospores/100 μl in tryptone saline pH 5.5 (Shafer et al., Infect Immun, 1984). To 100 μl of the organism suspension in a 96 well sterile polystyrene microtiter plate (Becton Dickinson, Franklin Lakes, N.J.) was added 100 μl of the peptide (final concentrations 400 μg/ml and 200 μg/ml) or 100 μl of tryptone saline. The latter served as a control. The microtiter plate was incubated at 37° C. for 4 hr and 100 μl of the contents from each well was plated on Sabouraud Dextrose agar plates and incubated at 37° C. overnight. The colony forming units (cfu) were counted and the fungicidal activity was expressed as percent killed and calculated according to the following equation: [(control cfu−test cfu)/control cfu]×100=% killed. Control cfu is indicated by the number of colonies present after […] of incubation in tryptone saline alone in the absence of peptide. Test cfu is determined by counting the number of colonies present after incubation in tryptone saline containing the peptide. Each experimental point was performed in triplicate.
# C. albicans (ATCC 28367) was used to standardize the in vitro killing assay. We explored the optimal growth conditions (temperature and time, 25° C. for 5 h and 33° C. for 90 min), numbers of blastospores per well (200, 400, 500, 600, 800, and 1000 cfu), range of peptide concentrations (750, 500, 400, 200 and 100 μg/ml) and the contact time between peptide and Candida (1, 2 and 4 hr) for killing to occur. […] The 90 minute incubation was more convenient technically and was therefore employed routinely. The optimum numbers of cfu per well was determined to be 500 and an incubation time of 4 hr at 37° C. between Candida and peptide was required to obtain optimal killing.
# C. tropicalis = assay: In vitro candidacidal assay, C. tropicalis; format: cell-based; conditions: 400 μg/ml (150 μM)
# Protocol: as §1
# (§2) Stock solutions of all peptides were made up at concentrations of 1 mg/ml in sterile endotoxin-free water for irrigation (Baxter, Deerfield, Ill.). Subsequent dilutions were all made in tryptone saline pH 5.5 (Shafer et al., Infect Immun, 1984). […] The optical density was read and the culture adjusted to 500 blastospores/100 μl in tryptone saline pH 5.5 (Shafer et al., Infect Immun, 1984). […] The colony forming units (cfu) were counted and the fungicidal activity was expressed as percent killed and calculated according to the following equation: [(control cfu−test cfu)/control cfu]×100=% killed. […] Test cfu is determined by counting the number of colonies present after incubation in tryptone saline containing the peptide. […]
# C. dubliniensis = assay: In vitro candidacidal assay, C. dubliniensis; format: cell-based; conditions: two isolates; 400 μg/ml (150 μM)
# Protocol: as §1, §2
# C. glabrata = assay: In vitro candidacidal assay, C. glabrata; format: cell-based; conditions: one isolate of three; 400 μg/ml (150 μM)
# Protocol: as §1, §2
# [1] = system: C. albicans (fluconazole sensitive isolate); assay: FUN-1 vital dye yeast viability, confocal microscopy, C. albicans; format: cell-based, Candida albicans; conditions: 400 μg/ml, 37° C. for 2 hr
# Protocol: Yeast viability was also assessed using the FUN-1 Live/Dead Yeast Viability Kit (Molecular Probes, Eugene, Oreg.). The methodology employed was essentially according to the protocol provided by the vendor for use with fluorescent microscopy. Briefly, yeast cultures were prepared exactly as stated above. C. glabrata, C. pseudotropicalis, C. albicans (fluconazole sensitive isolate) and S. cerevisiae (5×10^5 cfu in 100 μl of tryptone saline) were incubated (37° C. for 2 hr) in the absence or presence of peptide (CAP37(20-44)nat and CAP37(20-44)ser26/42) at a final concentration of 400 μg/ml. At the end of the incubation period, the samples were transferred to microcentrifuge tubes and centrifuged (10,000×g for 3 min at room temperature). The supernatant was removed and the pellet resuspended in 25 μl of GH solution (2% D-glucose containing 10 mM Na-HEPES, pH 7.2) as described in the technical data sheet provided by the vendor. A working solution of the FUN-1 reagent (100 μl of 10 μM) was prepared from 10 mM stock solution and 25 μl (final concentration 5 μM) added to the yeast and incubated at room temperature for 30 min. A sample (10 μl) was placed on a microscope slide and staining observed under a Leica TCS NT confocal microscope using Ar-488 and Kr-568 Lasers and 63x Plan APO 1.2 NA water immersion objective. Images were scanned and analyzed using the Leica TCS software.
# [2] = system: Salmonella typhimurium, Escherichia coli, and Pseudomonas aeruginosa; conditions: Gram negative organisms; cited from earlier work
# [3] = system: E. coli lipopolysaccharide (LPS); conditions: conscious rat; cited from earlier work
smiles,measurement,setting,value
"CC[C@H](C)[C@H](NC(=O)[C@H](CC(C)C)NC(=O)[C@H](C)NC(=O)CNC(=O)CNC(=O)[C@H](CS)NC(=O)[C@H](Cc1ccccc1)NC(=O)[C@H](Cc1c[nH]cn1)NC(=O)[C@H](CCCNC(=N)N)NC(=O)CNC(=O)[C@H](CCC(N)=O)NC(=O)[C@@H](N)CC(N)=O)C(=O)N[C@@H](Cc1c[nH]cn1)C(=O)N[C@@H](C)C(=O)N[C@@H](CCCNC(=N)N)C(=O)N[C@@H](Cc1ccccc1)C(=O)N[C@H](C(=O)N[C@@H](CCSC)C(=O)N[C@H](C(=O)N[C@@H](C)C(=O)N[C@@H](C)C(=O)N[C@@H](CO)C(=O)N[C@@H](CS)C(=O)N[C@@H](Cc1ccccc1)C(=O)N[C@@H](CCC(N)=O)C(=O)O)[C@@H](C)O)C(C)C [CAP37(20-44)nat, NQGRHFCGGALIHARFVMTAASCFQ] (H-NQGRHFCGGALIHARFVMTAASCFQ-OH; N-terminus and C-terminus assumed)",killing,Candida albicans,> 75%
same,killing with varying peptide concentrations,"Candida albicans; C. albicans ATCC 28367, 750, 500, 400, 200 and 100 μg/ml",Dose dependent killing
same,killing of blood isolate of Candida,"Candida albicans; blood isolate of C. albicans, 400 μg/ml (150 μM)",killed
same,peptide concentration required for activity,Candida albicans; fluconazole resistant isolate A-46,400 µg/mL
same,activity at the lower concentration,"Candida albicans; fluconazole resistant isolates A-5 and A-20, 200 μg/ml or 75 μM",significant activity
same,activity against C. albicans,Candida albicans; in vitro killing efficacy,significant activity
same,fungicidal or fungistatic effect,"Candida albicans; isolates A-5, A-20, A-46 and A-155, viable colony counts versus starting inoculum",fungicidal rather than fungistatic
same,activity against fluconazole resistant isolates,Candida albicans; isolates A-5 and A-20,highly active
same,activity against fluconazole sensitive isolates,"Candida albicans; isolates A-155, A-22 and A-111, 400 μg/ml",strongly active
same,activity against C. tropicalis,C. tropicalis,killed
same,activity against C. dubliniensis,C. dubliniensis,"effective against both isolates of C. dubliniensis and one isolate of C. glabrata, although to a lesser extent"
same,activity against C. glabrata,C. glabrata,"effective against both isolates of C. dubliniensis and one isolate of C. glabrata, although to a lesser extent"
same,blastoconidia stained green or green-yellow (dead),[1],70-80%
same,bactericidal activity,[2],potent bactericidal activity; also recorded: mimicked the antimicrobial activity of the native molecule
same,efficacy against lethal effects of LPS,[3],attenuating the lethal effects

# From US7745401B2, “Antifungal peptides and methods of use thereof” (The Board of Regents of the University of Oklahoma, priority 2005, dated 2010)
